Legend:
[1] = system: TLR7/8; test: TLR7/8-mediated IL-6 expression in THP-1 cells; format: cell-based, human; conditions: FIG. 4C
Description: RAW264.7 cells (ATCC, Manassas, Va., USA), which are mouse macrophages, were cultured in low-glucose DMEM (Thermo Fisher Scientific Inc.) supplemented with 10% FBS, 100 IU/ml penicillin and 100 μg/ml streptomycin in a culture system. Human monocyte THP1 cells were cultured in RPMI 1640 (Thermo Fisher Scientific Inc.) supplemented with 10% FBS, 100 IU/ml penicillin and 100 μg/ml streptomycin and then differentiation thereof into macrophages was induced using 10 nM phorbol 12-myristate 13-acetate (PMA) (Sigma-Aldrich Co. LLC.) for 24 hours. CL075, R848, CpG-ODN and Poly(I:C) were purchased from InvivoGen (San Diego, Calif., USA), and LPS was purchased from Sigma-Aldrich Co. (St. Louis, Mo., USA).
Cytotoxicity in RAW 264.7 cells was tested by treatment with these compounds at a concentration of 12.5 to 50 μM. […] The inhibitory effect of TAC5-a on TLR-mediated signaling was confirmed by measuring TNF-α secretion through ELISA in THP1-derived macrophages. […] In addition, in order to evaluate the antagonistic effect of TAC5-a on endosomal TLR activation, cells were cultured along with this compound in the presence of R848 (TLR7/8) or CL075 (TLR7/8), imiquimod (IMQ; TLR7), TL8 (TLR8), poly(I:C) (TLR3) or CpG ODN (TLR9) (FIGS. 4E, 4F and 4G).

[2] = system: RAW 264.7 cells; test: MTT assay, cytotoxicity in RAW 264.7 cells; conditions: FIG. 4B
Description: RAW264.7 cells (ATCC, Manassas, Va., USA), which are mouse macrophages, were cultured in low-glucose DMEM (Thermo Fisher Scientific Inc.) supplemented with 10% FBS, 100 IU/ml penicillin and 100 μg/ml streptomycin in a culture system.
Cytotoxicity in RAW 264.7 cells was tested by treatment with these compounds at a concentration of 12.5 to 50 μM.

[3] = system: C57BL/6 mice, IMQ-induced psoriasis; test: IMQ-induced psoriasis mouse model; format: in vivo; conditions: FIG. 5F
Description: The therapeutic efficacy of TAC5-a was evaluated in a psoriasis mouse model and a SLE mouse model. Psoriasis was induced in 6-7 week old C57BL/6 mice by topically applying 42 mg of IMQ cream (5%) to the shaved back skin of the mice for 6 consecutive days (FIG. 5A). TAC5-a was injected daily at doses of 50, 100 and 200 nmol/g and the effect thereof on severity was analyzed.
Histological analysis and immunochemical staining were performed on skin samples of mouse dorsal lesions. The sample was fixed with 4% paraformaldehyde solution, then embedded in paraffin and cut to 7 μm on a glass slide. The sections were stained with hematoxylin and eosin (H&E) and the thickness of the dermis and epidermis were measured. The thickness of skin was measured with a Leica DMi8 fluorescence microscope using a Leica LAS X Hardware Configurator (Leica Microsystems GmbH, Wetzlar, Germany). IMQ-mediated skin inflammation was evaluated by immunohistochemistry (IHC) using a primary antibody that recognizes CD68 (ab31630, 1:200 dilution) as a macrophage marker. […] The skin was stained with hematoxylin and eosin (H&E) in order to evaluate the thickness of the epidermis (yellow arrow) and dermis (green arrow) in IMQ-induced psoriasis mice and thereby to observe the histopathological changes of skin lesions in each group (FIG. 5G) Immunohistochemical analysis of skin lesions in each group was performed using a primary antibody that recognizes CD68.

Row | SMILES | TLR7/8-mediated IL-6 expression [1] | cytotoxicity at 50 μM [2] | thickness of the epidermis and the dermis (H&E) [3]
1 | CCOCC(Oc1cccnc1N)c1ccccc1 (centres unmarked) [TAC5-d, 3-(2-ethoxy-1-phenylethoxy)pyridine-2-amine] | inhibited |  | 
2 | c1ccc(COc2cccnc2Nc2ccccc2)cc1 [TAC5-c, 3-(benzyloxy)-N-phenylpyridin-2-amine] | inhibited | slight cytotoxicity | 
3 | CN(Cc1cnc2nc(N)nc(N)c2n1)c1ccc(C(=O)N[C@@H](CCC(=O)O)C(=O)O)cc1 [MTX, methotrexate, reference compound] |  |  | therapeutic effects similar to those of the treatment group were observed
4 | NCCOCC(Oc1cccnc1N)c1ccccc1 (centres unmarked) [TAC5-e, 3-(2-(2-aminoethoxy)-1-phenylethoxy)pyridine-2-amine] | inhibited |  | 
